Results: patent publication US9522914B2, “Azole derivative” (TAISHO PHARMACEUTICAL CO., LTD, priority 2011, dated 2016)

Target: Human V1b receptor (Homo sapiens (Human), UniProt P47901)
Experiment: Binding Test for V1b Receptor ([3H]AVP, crude membrane preparation of 293FT cells)
Settings: inhibition of [3H]AVP binding (0.4 to 1 nmol/L), room temperature, 60 minutes
Outline: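 Crude membranes from 293FT cells transiently expressing human V1b, incubated with [3H]AVP (0.4 to 1 nmol/L) and compound (0.01 nmol/L–1 μmol/L final) in Tris pH 7.4 with MgCl2 and 0.1% BSA, 60 min at room temperature. Bound label collected by filtration. Nonspecific binding defined with unlabeled AVP; IC50 from dose-response curve.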

Chain of Human V1b receptor (P47901 whole entry): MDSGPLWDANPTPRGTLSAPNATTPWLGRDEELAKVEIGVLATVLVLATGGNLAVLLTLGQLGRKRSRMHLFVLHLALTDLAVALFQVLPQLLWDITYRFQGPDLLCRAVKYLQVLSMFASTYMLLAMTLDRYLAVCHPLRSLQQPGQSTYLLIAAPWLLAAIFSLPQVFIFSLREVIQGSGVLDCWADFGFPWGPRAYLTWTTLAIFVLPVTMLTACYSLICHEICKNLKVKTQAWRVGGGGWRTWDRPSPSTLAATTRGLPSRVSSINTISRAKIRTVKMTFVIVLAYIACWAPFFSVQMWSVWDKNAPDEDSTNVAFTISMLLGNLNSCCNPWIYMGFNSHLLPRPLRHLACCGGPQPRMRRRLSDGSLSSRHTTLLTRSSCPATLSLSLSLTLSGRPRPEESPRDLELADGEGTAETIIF

| Structure (SMILES) | IC50 [µM] |
| --- | --- |
| COc1cccc(-c2nc(-c3ccc(CCN4CCC(F)CC4)cc3)nn2CC(=O)NC(C)C)c1 [Example B-39, 2-[3-{4-[2-(4-fluoropiperidin-1-yl)ethyl]phenyl}-5-(3-methoxyphenyl)-1H-1,2,4-triazol-1-yl]-N-(propan-2-yl)acetamide] | 0.01 to 0.1 |
| COc1cccc(-c2nc(-c3ccc(CCN4CCC(F)(F)CC4)cc3)nn2CC(=O)NC(C)C)c1 [Example B-40, 2-[3-{4-[2-(4,4-difluoropiperidin-1-yl)ethyl]phenyl}-5-(3-methoxyphenyl)-1H-1,2,4-triazol-1-yl]-N-(propan-2-yl)acetamide] | 0.01 to 0.1 |
| COc1cccc(-c2nc(-c3ccc(CCN4C(C)COCC4C)cc3)nn2CC(=O)NC(C)C)c1 (centres unmarked) [Example B-41, 2-[3-{4-[2-(3,5-dimethylmorpholin-4-yl)ethyl]phenyl}-5-(3-methoxyphenyl)-1H-1,2,4-triazol-1-yl]-N-(propan-2-yl)acetamide] | 0.01 to 0.1 |
| COc1cccc(-c2nc(-c3ccc(CCN4CC5(COC5)C4)cc3)nn2CC(=O)NC(C)C)c1 [Example B-42, 2-[5-(3-methoxyphenyl)-3-{4-[2-(2-oxa-6-azaspiro[3.3]hept-6-yl)ethyl]phenyl}-1H-1,2,4-triazol-1-yl]-N-(propan-2-yl)acetamide] | < 0.01 |
| CC(C)NC(=O)Cc1nn(-c2ccc(CCN3CCCCC3)cc2)cc1-c1cccc(Cl)c1 [Example C-01, 2-[4-(3-chlorophenyl)-1-{4-[2-(piperidin-1-yl)ethyl]phenyl}-1H-pyrazol-3-yl]-N-(propan-2-yl)acetamide] | 0.021 |
| CC(C)NC(=O)Cc1cn(-c2ccc(CCN3CCCCC3)cc2)nc1-c1cccc(Cl)c1 [Example C-02, 2-[3-(3-chlorophenyl)-1-{4-[2-(piperidin-1-yl)ethyl]phenyl}-1H-pyrazol-4-yl]-N-(propan-2-yl)acetamide] | 0.013 |
| CC(C)NC(=O)Cc1cn(-c2ccc(CCN3CCOCC3)cc2)nc1-c1cccc(Cl)c1 [Example C-03, 2-[3-(3-chlorophenyl)-1-{4-[2-(morpholin-4-yl)ethyl]phenyl}-1H-pyrazol-4-yl]-N-(propan-2-yl)acetamide] | 0.0086 |
| CC(C)NC(=O)Cc1cn(-c2ccc(CCN3CC4(COC4)C3)cc2)nc1-c1cccc(Cl)c1 [Example C-04, 2-[3-(3-chlorophenyl)-1-{4-[2-(2-oxa-6-azaspiro[3.3]hept-6-yl)ethyl]phenyl}-1H-pyrazol-4-yl]-N-(propan-2-yl)acetamide] | 0.01 to 0.1 |
| CC(C)NC(=O)Cc1cc(-c2ccc(CCN3CCOCC3)cc2)nn1-c1cccc(Cl)c1 [Example C-05, 2-[1-(3-chlorophenyl)-3-{4-[2-(morpholin-4-yl)ethyl]phenyl}-1H-pyrazol-5-yl]-N-(propan-2-yl)acetamide] | 0.021 |
| CC(C)NC(=O)Cn1nc(-c2ccc(CCN3CCCCC3)cc2)cc1-c1cccc(Cl)c1 [Example C-06, 2-[5-(3-chlorophenyl)-3-{4-[2-(piperidin-1-yl)ethyl]phenyl}-1H-pyrazol-1-yl]-N-(propan-2-yl)acetamide] | 0.017 |
| CC(C)NC(=O)Cn1nc(-c2ccc(CCN3CCOCC3)cc2)cc1-c1cccc(Cl)c1 [Example C-07, 2-[5-(3-chlorophenyl)-3-{4-[2-(morpholin-4-yl)ethyl]phenyl}-1H-pyrazol-1-yl]-N-(propan-2-yl)acetamide] | 0.0071 |
| CC(C)NC(=O)Cc1nc(-c2ccc(CCN3CCCCC3)cc2)oc1-c1cccc(Cl)c1 [Example C-08, 2-[5-(3-chlorophenyl)-2-{4-[2-(piperidin-1-yl)ethyl]phenyl}-1,3-oxazol-4-yl]-N-(propan-2-yl)acetamide] | 0.01 to 0.1 |
| CC(C)NC(=O)Cc1nc(-c2ccc(CCN3CCOCC3)cc2)oc1-c1cccc(Cl)c1 [Example C-09, 2-[5-(3-chlorophenyl)-2-{4-[2-(morpholin-4-yl)ethyl]phenyl}-1,3-oxazol-4-yl]-N-(propan-2-yl)acetamide] | 0.027 |
| CC(C)NC(=O)Cc1oc(-c2ccc(CCN3CCCCC3)cc2)nc1-c1cccc(Cl)c1 [Example C-10, 2-[4-(3-chlorophenyl)-2-{4-[2-(piperidin-1-yl)ethyl]phenyl}-1,3-oxazol-5-yl]-N-(propan-2-yl)acetamide] | 0.0065 |
| CC(C)NC(=O)Cc1oc(-c2ccc(CCN3CCOCC3)cc2)nc1-c1cccc(Cl)c1 [Example C-11, 2-[4-(3-chlorophenyl)-2-{4-[2-(morpholin-4-yl)ethyl]phenyl}-1,3-oxazol-5-yl]-N-(propan-2-yl)acetamide] | 0.0039 |
| CC(C)NC(=O)Cc1nc(-c2ccc(CCN3CCCCC3)cc2)sc1-c1cccc(Cl)c1 [Example C-13, 2-[5-(3-chlorophenyl)-2-{4-[2-(piperidin-1-yl)ethyl]phenyl}-1,3-thiazol-4-yl]-N-(propan-2-yl)acetamide] | 0.016 |

| Structure (SMILES) | IC50 [µM] |
| --- | --- |
| CC(C)NC(=O)Cc1nc(-c2ccc(CCN3CCOCC3)cc2)sc1-c1cccc(Cl)c1 [Example C-14, 2-[5-(3-chlorophenyl)-2-{4-[2-(morpholin-4-yl)ethyl]phenyl}-1,3-thiazol-4-yl]-N-(propan-2-yl)acetamide] | 0.014 |
| CC(C)NC(=O)Cc1nc(-c2ccc(CCN3CC4(COC4)C3)cc2)sc1-c1cccc(Cl)c1 [Example C-15, 2-[5-(3-chlorophenyl)-2-{4-[2-(2-oxa-6-azaspiro[3.3]hept-6-yl)ethyl]phenyl}-1,3-thiazol-4-yl]-N-(propan-2-yl)acetamide] | 0.022 |
| CC(C)NC(=O)Cc1nc(-c2cccc(CCN3CCCCC3)c2)sc1-c1cccc(Cl)c1 [Example C-16, 2-[5-(3-chlorophenyl)-2-{3-[2-(piperidin-1-yl)ethyl]phenyl}-1,3-thiazol-4-yl]-N-(propan-2-yl)acetamide] | 0.1 to 1 |
| CC(C)NC(=O)Cc1nc(-c2cccc(CCN3CCOCC3)c2)sc1-c1cccc(Cl)c1 [Example C-17, 2-[5-(3-chlorophenyl)-2-{3-[2-(morpholin-4-yl)ethyl]phenyl}-1,3-thiazol-4-yl]-N-(propan-2-yl)acetamide] | 0.1 to 1 |
| CC(C)NC(=O)CC1=C(c2cccc(Cl)c2)C(=O)N(c2ccc(CCN3CCOCC3)cc2)C1=O [Example C-18, 2-[4-(3-chlorophenyl)-1-{4-[2-(morpholin-4-yl)ethyl]phenyl}-2,5-dioxo-2,5-dihydro-1H-pyrrol-3-yl]-N-(propan-2-yl)acetamide] | 0.009 |
| CC(C)NC(=O)Cn1c(-c2cccc(Cl)c2)cn(-c2ccc(CCN3CCOCC3)cc2)c1=O [Example C-19, 2-[5-(3-chlorophenyl)-3-{4-[2-(morpholin-4-yl)ethyl]phenyl}-2-oxo-2,3-dihydro-1H-imidazol-1-yl]-N-(propan-2-yl)acetamide] | 0.0022 |
| Cc1c(-c2cccc(Cl)c2)n(CC(=O)NC(C)C)c(=O)n1-c1ccc(CCN2CCOCC2)cc1 [Example C-20, 2-[5-(3-chlorophenyl)-4-methyl-3-{4-[2-(morpholin-4-yl)ethyl]phenyl}-2-oxo-2,3-dihydro-1H-imidazol-1-yl]-N-(propan-2-yl)acetamide] | 0.01 to 0.1 |
| CC(C)NC(=O)Cc1nc(-c2ccc(CCN3CCOCC3)cc2)nn1-c1cccc(Cl)c1 [Example C-21, 2-[1-(3-chlorophenyl)-3-{4-[2-(morpholin-4-yl)ethyl]phenyl}-1H-1,2,4-triazol-5-yl]-N-(propan-2-yl)acetamide] | 0.014 |
| CC(C)NC(=O)Cc1nc(-c2ccc(CCN3C4CCC3COC4)cc2)nn1-c1cccc(Cl)c1 [Example C-22, 2-[1-(3-chlorophenyl)-3-{4-[2-(3-oxa-8-azabicyclo[3.2.1]oct-8-yl)ethyl]phenyl}-1H-1,2,4-triazol-5-yl]-N-(propan-2-yl)acetamide] | 0.0088 |
| CC(C)NC(=O)Cc1nn(-c2ccc(CCN3C4CCC3COC4)cn2)c(=O)n1-c1cccc(Cl)c1 [Example D-02, 2-[4-(3-chlorophenyl)-1-{5-[2-(3-oxa-8-azabicyclo[3.2.1]oct-8-yl)ethyl]pyridin-2-yl}-5-oxo-4,5-dihydro-1H-1,2,4-triazol-3-yl]-N-(propan-2-yl)acetamide] | 0.01 to 0.1 |
| CC(C)NC(=O)Cc1nn(-c2ccc(CCN3C4CCC3COC4)cc2)c(=O)n1-c1cccc(Cl)c1 [Example D-03, 2-[4-(3-chlorophenyl)-1-{4-[2-(3-oxa-8-azabicyclo[3.2.1]oct-8-yl)ethyl]phenyl}-5-oxo-4,5-dihydro-1H-1,2,4-triazol-3-yl]-N-(propan-2-yl)acetamide] | 0.014 |
| CC(C)NC(=O)Cc1nn(-c2ccc(CCN3CCOCC3)cn2)c(=O)n1-c1cccc(Cl)c1 [Example D-04, 2-[4-(3-chlorophenyl)-1-{5-[2-(morpholin-4-yl)ethyl]pyridin-2-yl}-5-oxo-4,5-dihydro-1H-1,2,4-triazol-3-yl]-N-(propan-2-yl)acetamide] | 0.1 to 1 |
| COc1cc(-n2c(CC(=O)NC(C)(C)C)nn(-c3ccc(CCN4CCOCC4)cc3)c2=O)ccc1F [Example D-05, N-tert-butyl-2-[4-(4-fluoro-3-methoxyphenyl)-1-{4-[2-(morpholin-4-yl)ethyl]phenyl}-5-oxo-4,5-dihydro-1H-1,2,4-triazol-3-yl]acetamide] | 0.0025 |
| COc1cccc(-n2c(CC(=O)NC(C)(C)C)nn(-c3ccc(CCN4CCOCC4)cc3)c2=O)c1 [Example D-06, N-tert-butyl-2-[4-(3-methoxyphenyl)-1-{4-[2-(morpholin-4-yl)ethyl]phenyl}-5-oxo-4,5-dihydro-1H-1,2,4-triazol-3-yl]acetamide] | 0.0046 |
| COc1cccc(-n2c(CC(=O)NC(C)(C)C)nn(-c3ccc(CCN4C5CCC4COC5)cc3)c2=O)c1 [Example D-07, N-tert-butyl-2-[4-(3-methoxyphenyl)-1-{4-[2-(3-oxa-8-azabicyclo[3.2.1]oct-8-yl)ethyl]phenyl}-5-oxo-4,5-dihydro-1H-1,2,4-triazol-3-yl]acetamide] | 0.0055 |
| COc1cccc(-n2c(CC(=O)NC(C)(C)C)nn(-c3ccc(CCN4CCOCC4)cn3)c2=O)c1 [Example D-08, N-tert-butyl-2-[4-(3-methoxyphenyl)-1-{5-[2-(morpholin-4-yl)ethyl]pyridin-2-yl}-5-oxo-4,5-dihydro-1H-1,2,4-triazol-3-yl]acetamide] | 0.01 to 0.1 |
